Laboratory results: article PMC12530851, “Design, synthesis, and apoptotic antiproliferative activity of novel dihydropyrimidine-5-carbonitrile/1,2,4-oxadiazole hybrids as dual EGFR/VEGFR-2 inhibitors endowed with antioxidant activity” (RSC Advances, 2025)
Read-outs that look alike come from different tables or passages of the source.

Columns and labels:
VEGFR-2 [1] = biological target: T1, VEGFR-2 (Homo sapiens, UniProt P35968); parameters: purchased Carna Biosciences, Inc; conditions: cited from earlier work
T1 sequence (P35968 20-1356): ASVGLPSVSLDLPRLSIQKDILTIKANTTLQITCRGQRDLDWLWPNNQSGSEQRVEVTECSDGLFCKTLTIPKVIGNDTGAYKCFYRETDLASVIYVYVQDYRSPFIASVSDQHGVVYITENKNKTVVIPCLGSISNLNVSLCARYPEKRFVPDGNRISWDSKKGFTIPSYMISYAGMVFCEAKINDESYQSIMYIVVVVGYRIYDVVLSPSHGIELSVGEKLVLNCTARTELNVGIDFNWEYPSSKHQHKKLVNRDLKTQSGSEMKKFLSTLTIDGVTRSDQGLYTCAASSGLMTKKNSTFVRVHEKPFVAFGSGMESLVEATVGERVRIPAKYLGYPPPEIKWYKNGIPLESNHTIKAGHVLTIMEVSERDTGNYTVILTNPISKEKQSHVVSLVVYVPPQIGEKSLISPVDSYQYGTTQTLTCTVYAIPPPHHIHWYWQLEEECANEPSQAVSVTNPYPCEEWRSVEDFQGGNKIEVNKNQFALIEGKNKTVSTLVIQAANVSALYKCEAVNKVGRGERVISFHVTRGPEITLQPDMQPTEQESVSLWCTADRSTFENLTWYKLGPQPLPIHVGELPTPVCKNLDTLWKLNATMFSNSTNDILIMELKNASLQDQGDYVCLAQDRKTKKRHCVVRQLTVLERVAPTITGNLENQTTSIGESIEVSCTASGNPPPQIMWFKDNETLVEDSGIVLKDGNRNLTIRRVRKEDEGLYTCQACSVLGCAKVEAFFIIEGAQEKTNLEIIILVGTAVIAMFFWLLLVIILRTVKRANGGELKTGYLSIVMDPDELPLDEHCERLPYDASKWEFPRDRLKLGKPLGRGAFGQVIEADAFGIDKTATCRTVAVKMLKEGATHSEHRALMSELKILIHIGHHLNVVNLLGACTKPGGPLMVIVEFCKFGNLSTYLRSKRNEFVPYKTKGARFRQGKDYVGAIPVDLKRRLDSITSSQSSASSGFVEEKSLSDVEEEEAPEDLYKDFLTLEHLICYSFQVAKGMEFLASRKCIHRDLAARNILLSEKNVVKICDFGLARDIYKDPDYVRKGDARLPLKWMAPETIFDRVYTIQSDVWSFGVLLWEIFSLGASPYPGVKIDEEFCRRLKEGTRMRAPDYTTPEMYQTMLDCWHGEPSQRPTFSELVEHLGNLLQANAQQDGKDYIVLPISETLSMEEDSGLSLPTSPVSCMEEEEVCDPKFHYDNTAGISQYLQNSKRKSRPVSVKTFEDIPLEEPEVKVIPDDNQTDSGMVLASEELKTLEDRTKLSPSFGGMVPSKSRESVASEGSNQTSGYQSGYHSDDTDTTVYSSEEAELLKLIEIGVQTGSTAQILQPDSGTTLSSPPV

EGFR [2] = biological target: T2, EGFR (Homo sapiens, UniProt P00533); parameters: 645–1186; His6 (N); made in house; host or cells: Sf-9 insect cells (baculovirus; pBlueBacHis2B and pFASTBacHTc vectors); conditions: cited from earlier work
T2 sequence (P00533 669-1210): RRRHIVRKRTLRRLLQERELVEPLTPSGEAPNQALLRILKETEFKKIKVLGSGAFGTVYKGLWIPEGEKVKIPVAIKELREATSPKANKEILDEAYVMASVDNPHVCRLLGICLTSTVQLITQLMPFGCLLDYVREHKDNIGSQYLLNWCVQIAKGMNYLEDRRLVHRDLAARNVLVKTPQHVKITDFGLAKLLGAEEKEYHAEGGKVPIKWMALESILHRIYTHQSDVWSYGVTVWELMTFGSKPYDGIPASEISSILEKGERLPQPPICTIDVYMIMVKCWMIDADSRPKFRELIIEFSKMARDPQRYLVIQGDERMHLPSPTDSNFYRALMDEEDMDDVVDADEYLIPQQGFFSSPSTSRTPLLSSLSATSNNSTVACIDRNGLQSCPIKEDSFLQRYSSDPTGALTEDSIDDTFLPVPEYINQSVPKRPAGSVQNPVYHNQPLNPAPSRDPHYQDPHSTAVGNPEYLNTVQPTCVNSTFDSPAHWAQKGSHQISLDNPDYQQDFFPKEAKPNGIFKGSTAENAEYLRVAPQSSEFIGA

[3] = tested on: Panc-1 (pancreatic cancer); assay: Antiproliferative assay, Panc-1; type: cell-based; conditions: Homo sapiens; Panc-1 pancreatic cancer cells; read-out: Antiproliferative activity IC50 ± SEM, Panc-1
Excerpt: (§1) The dose–response experiments established the IC50 values for the new compounds. The given findings were obtained from at least two distinct studies, each comprising three repeats per concentration. Appendix A (SI File) provides experimental details.[38,39]
(§2) The MTT assay[43] was utilized to assess the antiproliferative effects of compounds 10a–l on four human cancer cell lines: HT-29 (colon cancer), Panc-1 (pancreatic cancer), A-549 (lung cancer), and MCF-7 (breast cancer). […]
(§3) 4.2.2. Assay for antiproliferative effect
(§4) To explore the antiproliferative potential of compounds propidium iodide fluorescence assay was performed using different cell lines such as Panc-1 (pancreas cancer cell line), MCF-7 (breast cancer cell line), HT-29 (colon cancer cell line) and A-549 (epithelial cancer cell line), respectively. To calculate the total nuclear DNA, a fluorescent dye (propidium iodide, PI) is used which can attach to the DNA, thus offering a quick and precise technique. PI cannot pass through the cell membrane and its signal intensity can be considered as directly proportional to quantity of cellular DNA. Cells whose cell membranes are damaged or have changed permeability are counted as dead ones. The assay was performed by seeding the cells of different cell lines at a density of 3000-7500 cells/well (in 200μl medium) in culture plates followed by incubation for 24h at 37 °C in humidified 5%CO2/95% air atmospheric conditions. The medium was removed; the compounds were added to the plates at 10 μM concentrations (in 0.1% DMSO) in triplicates, followed by incubation for 48h. DMSO (0.1%) was used as control. After incubation, medium was removed followed by the addition of PI (25 μl, 50μg/mL in water/medium) to each well of the plates. At - 80 °C, the plates were allowed to freeze for 24 h, followed by thawing at 25 °C. A fluorometer (Polar-Star BMG Tech) was used to record the readings at excitation and emission wavelengths of 530 and 620 nm for each well. The percentage cytotoxicity of compounds was calculated using […]
(§5) Where ATC= Absorbance of treated cells and AC= Absorbance of control. Erlotinib was used as positive control in the assay. […]

[4] = Cell viability assay (MTT) on normal MCF-10A cells; type: cell-based; conditions: human, MCF-10A mammary gland epithelial cells (normal cell line), MCF-10A normal cells, four-day incubation
Procedure: The impact of novel compounds 10a–l on the viability of a normal human cell line, specifically human mammary gland epithelial cells (MCF-10A), was assessed to ascertain the safety of the newly synthesized compounds. The MTT test was employed to assess the cell viability of the novel compounds after a four-day incubation with MCF-10A cells.[29,37] Refer to Appendix A for more experimental details.
The effect of new compounds 10a–l on the viability of a normal human cell line, namely human mammary gland epithelial cells (MCF-10A), was evaluated to determine the safety of the newly synthesized compounds.
4.2. Biological evaluation
4.2.1 Cell Viability assay (MTT assay)
MTT assay was performed to investigate the effect of the synthesized compounds on mammary epithelial cells (MCF-10A). The cells were propagated in medium consisting of Ham's F-12 medium/ Dulbecco's modified Eagle's medium (DMEM) (1:1) supplemented with 10% foetal calf serum, 2 mM glutamine, insulin (10 μg/mL), hydrocortisone (500 ng/mL) and epidermal growth factor (20 ng/mL). Trypsin ethylenediamine tetra acetic acid (EDTA) was used to passage the cells after every 2-3 days. 96-well flat-bottomed cell culture plates were used to seed the cells at a density of 10^4 cells mL-1. The medium was aspirated from all the wells of culture plates after 24 h followed by the addition of synthesized compounds (in 200 μL medium to yield a final concentration of 0.1% (v/v) dimethyl sulfoxide) into individual wells of the plates. Four wells were designated to a single compound. The plates were allowed to incubate at 37°C for 96 h. Afterwards, the medium was aspirated and 3-[4,5-dimethylthiazol-2-yl]-2,5-diphenyltetrazolium bromide (MTT) (0.4 mg/mL) in medium was added to each well and subsequently incubated for 3 h. The medium was aspirated and 150 μL dimethyl sulfoxide (DMSO) was added to each well. The plates were vortexed followed by the measurement of absorbance at 540 nm on a microplate reader. […]

MCF-7 (breast cancer) = assay: Antiproliferative assay, MCF-7; type: cell-based, human; conditions: Homo sapiens, MCF7; MCF-7 breast cancer cells; read-out: Antiproliferative activity IC50 ± SEM, MCF-7
Excerpt: as §1, §2, §3, §4, §5

A-549 (lung cancer) = assay: Antiproliferative assay, A-549; type: cell-based; conditions: Homo sapiens, A549; A-549 lung cancer cells; read-out: Antiproliferative activity IC50 ± SEM, A-549
Excerpt: as §1, §2, §3, §4, §5

EGFR [5] = biological target: T2, EGFR; assay: EGFR inhibitory assay (EGFR-TK test)
Procedure: Baculoviral expression vectors including pBlueBacHis2B and pFASTBacHTc were used
5ʹ upstream to the EGFR sequence comprised a sequence that encoded (His)6. Sf-9 cells were infected for 72h for protein expression. The pellets of Sf-9 cells were solubilized in a buffer containing sodium vanadate (100 μM), aprotinin (10 μg/mL), triton (1%), HEPES
buffer(50mM), ammonium molybdate (10 μM), benzamidine HCl (16 μg/mL), NaCl (10 mM),leupeptin (10 μg/mL) and pepstatin (10 μg/mL) at 0°C for 20 min at pH 7.4, followed by centrifugation for 20 min. To eliminate the nonspecifically bound material, a Ni-NTA super flow packed column was used to pass through and wash the crude extract supernatant first with 10mM and then with 100 mM imidazole. Histidine-linked proteins were first eluted with 250 and then with 500 mM imidazole subsequent to dialysis against NaCl (50 mM), HEPES (20 mM), glycerol (10%) and 1 μg/mL each of aprotinin, leupeptin and pepstatin for 120 min. The purification was performed either at 4 °C or on ice. To record autophosphorylation level, EGFR kinase assay was carried out on the basis of DELFIA/Time-Resolved Fluorometry. The compounds were first
dissolved in DMSO absolute, subsequent to dilution to appropriate concentration using HEPES
(25 mM) at pH 7.4. Each compound (10 μL) was incubated with recombinant enzyme (10 μL, 5
ng for EGFR, 1:80 dilution in 100 mM HEPES) for 10 min at 25 °C, subsequent to the addition of
5X buffer (10 μL, containing 2 mM MnCl2, 100 μM Na3VO4, 20 mM HEPES and 1 mM DTT)
and ATP-MgCl2 (20 μL, containing 0.1 mM ATP and 50 mM MgCl2) and incubation for 1h. The
negative and positive controls were included in each plate by the incubation of enzyme either with
or without ATP-MgCl2. The liquid was removed after incubation and the plates were washed
thrice using a wash buffer. The Europium-tagged antiphosphotyrosine antibody (75 μL, 400 ng)
was added to each well followed by incubation of 1h and then washing of the plates using buffer.
The enhancement solution was added to each well and the signal was recorded at excitation and
The autophosphorylation percentage inhibition by compounds was calculated using the following equation:
calculated. The majority of signals detected by antiphosphotyrosine antibody were from EGFR because the enzyme preparation contained low impurities.

VEGFR-2 [6] = biological target: T1, VEGFR-2; assay: VEGFR-2 inhibitory assay
Procedure: The majority of signals detected by antiphosphotyrosine antibody were from EGFR because the enzyme preparation contained low impurities.
Prepare all the solutions using autoclaved, deionized water and analytical grade reagents. Prepare
and store all the reagents at room temperature (unless indicated otherwise). EDTA solution (0.5
M, pH 8.0): add 95 mL ultra-pure water to 14.612 g EDTA, adjust the pH to 8.0 using NaOH
solution, add 5 mL ultra-pure water; 1×Kinase Assay Buffer: add 25 mL HEPES solution (1 M),
water, adjust pH to 7.5 and constant volume to 500 mL using ultrapure water; 4×Stop solution (40
mM): Mix 0.8 mL of the foregoing EDTA solution, 1 mL 10×Detection Buffer and 8.2 mL ultra-
pure water; 1×Detection Buffer: Mix 1 mL 10×Detection Buffer with 9 mL water; 4×VEGFR
μM) was added to 624 μL 1×Kinase Assay Buffer and mixed; 4×ULight™-labeled JAK1
concentration 5 μM) was added to 576 μL 1×Kinase Assay Buffer and mixed; 4×ATP Solution
2×substrate/ATP Mix: 560 μL foregoing 4×ULight™-labeled JAK1 and 560 μL 4×ATP solution
and mixed (prepared before use). The assays used an ULight-labeled peptide substrate and a
Europium-W1024-labeled antiphosphotyrosine antibody. The VEGFR-2 was purchased from
Carna Biosciences, Inc. (New York, USA). The 384-well plates were obtained from PerkinElmer.
Compounds were dissolved in DMSO and diluted to 11 concentrations at a tripling rate from 2.500
5 μL 2×VEGFR-2 kinase solution (0.5 nM)
was added to 384-well plates homogeneous mixing and pre-reaction at room temperature for 30
min. Next, 2.5 μL 4×Ultra ULightTM-JAK-1(Tyr1023) Peptide (200 nM)/ATP (40 μM) was
added to the corresponding wells of a 384-well plate. Negative control: 2.5 μL/well 4×substrate/ATP mixture and 7.5 μL 1×kinase assay buffer in 384-well plate well. Positive control:
μL/well 2×VEGFR-2 kinase solution was added to the 384-well plate, The final concentration of DMSO in the mixing system was 4%. After incubation at room temperature and dark for 60 min, 5 μL 4×stop solution was added to corresponding wells to react for 5 min and then 5 μL 4×detection mix was added to the corresponding wells of a 384-well plate. The mixture was centrifugally mixed and stayed for 60 min at room temperature for color development. The plate
was read using an Envision plate reader. The inhibition rate (%) = (positive well reading-
compound well reading)/(positive well reading-negative well reading)×100. The corresponding IC50 values were calculated using GraphPad Prism 5.0.

[7] = tested on: four human cancer cell lines (A-549, MCF-7, Panc-1, HT-29); assay: Antiproliferative assay, average over four cancer cell lines; type: cell-based; conditions: for GI50: average IC50 across A-549, MCF-7, Panc-1, HT-29
Procedure: The given findings were obtained from at least two distinct studies, each comprising three repeats per concentration. Appendix A (SI File) provides experimental details.[38,39] […]
as §3
To explore the antiproliferative potential of compounds propidium iodide fluorescence assay was performed using different cell lines such as Panc-1 (pancreas cancer cell line), MCF-7 (breast […]
respectively. To calculate the total nuclear DNA, a fluorescent dye (propidium iodide, PI) is used which can attach to the DNA, thus offering a quick and precise technique. PI cannot pass through the cell membrane and its signal intensity can be considered as directly proportional to quantity of cellular DNA. Cells whose cell membranes are damaged or have changed permeability are counted as dead ones. The assay was performed by seeding the cells of different cell lines at a density of 3000-7500 cells/well (in 200μl medium) in culture plates followed by incubation for 24h at 37 °C […]
The medium was removed; the compounds were added to the plates at 10 μM concentrations (in 0.1% DMSO) in triplicates, followed by incubation for 48h. DMSO (0.1%) was used as control. After incubation, medium was removed followed by the addition of PI (25 μl, 50μg/mL in water/medium) to each well of the plates. At - 80 °C, the plates were allowed to freeze for 24 h, followed by thawing at 25 °C. A fluorometer (Polar-Star BMG Tech) was used to record the readings at excitation and emission wavelengths of 530 and 620 nm for each well. The percentage cytotoxicity of compounds was calculated using […]
Where ATC= Absorbance of treated cells and AC= Absorbance of control. […]
positive control in the assay. […]

HT-29 (colon cancer) = assay: Antiproliferative assay, HT-29; type: cell-based; conditions: Homo sapiens; HT-29 colon cancer cells; read-out: Antiproliferative activity IC50 ± SEM, HT-29
Excerpt: as §1, §2, §3, §4, §5

BRAF^V600E = tested on: BRAF^V600E; parameters: method as in PMID 39281035; conditions: cited from earlier work
mutant EGFR (EGFR^T790M) = tested on: mutant EGFR (EGFR^T790M); parameters: method as in PMID 39281035; conditions: cited from earlier work

| SMILES | IC50 [3] [nM] | viability at 96 h, 50 µM [4] [%] | IC50 (MCF-7 (breast cancer)) [nM] | IC50 (A-549 (lung cancer)) [nM] | IC50 (EGFR [5]) [nM] | IC50 (VEGFR-2 [6]) [nM] | GI50 ([7]; Homo sapiens) [nM] | GI50 [7] [nM] | IC50 (HT-29 (colon cancer)) [nM] | other results |
| --- | --- | --- | --- | --- | --- | --- | --- | --- | --- | --- |
| CC(=O)c1ccc(NC(=O)CSC2=NC(=O)C(C#N)C(c3ccccc3)N2)cc1 (stereo not shown) [Compound II] |  |  |  |  |  |  |  |  |  | IC50 (VEGFR-2 [1]; read-out: VEGFR-2 kinase IC50): 199 nM |
| COc1cc(-c2noc(Cn3cc(-c4ccccc4)nn3)n2)cc(OC)c1OC [Compound III] |  |  |  |  |  |  |  |  |  | IC50 (EGFR [2]): 76 nM; IC50 (VEGFR-2 [1]; read-out: VEGFR-2 IC50): 2.4 nM |
| COc1ccc(-c2csc(NC(=O)CSc3nc(-c4ccc(OC)cc4)c(C#N)c(=O)[nH]3)n2)cc1 [Compound I] |  |  |  |  |  |  |  |  |  | IC50 (EGFR [2]; in vitro EGFR inhibitory assay): 190 ± 200 nM |
| N#Cc1c(-c2ccc(Cl)cc2)nc(SCc2nc(-c3ccc(Cl)cc3)no2)[nH]c1=O [Compound 10h, 2-(((3-(4-Chlorophenyl)-1,2,4-oxadiazol-5-yl)methyl)thio)-4-(4-chlorophenyl)-6-oxo-1,6-dihydropyrimidine-5-carbonitrile] | 35 ± 2 | 92 | 31 ± 2 | 35 ± 2 | 79 ± 5 | 43 ± 3 | 31 | 34 | 36 ± 2 | Reduction in antiproliferative potency relative to 10k (GI50) ([7]; less potent than 10k): 1.6 fold |
| COc1ccc(-c2noc(CSc3nc(-c4ccc(Cl)cc4)c(C#N)c(=O)[nH]3)n2)cc1 [Compound 10i, 2-(((3-(4-Methoxyphenyl)-1,2,4-oxadiazol-5-yl)methyl)thio)-4-(4-chlorophenyl)-6-oxo-1,6-dihydropyrimidine-5-carbonitrile] | 30 ± 1 | 91 | 28 ± 1 | 33 ± 2 | 71 ± 5 | 39 ± 2 | 34 | 31 | 34 ± 1 |  |
| O=c1c2ccccc2nc(SCc2nc(-c3ccc(Cl)cc3)no2)n1-c1ccccc1 [Compound IV] |  |  |  |  |  |  |  |  |  | IC50 (BRAF^V600E): 48 nM; Efficacy against mutant EGFR (EGFR^T790M) (mutant EGFR (EGFR^T790M)): considerable efficacy |
